From the NIST ThermoML archive (doi:10.1021/je050020m)

Assay: xn = mol fraction of the nth substance listed
Details: Liquid, Vibrating tube method

CCCCCCCCCC [decane] + O=C=O
Details	mass density [kg/m3]
352.78 K, 12025 kPa, x2 = 0.0551	697.67
352.78 K, 13009 kPa, x2 = 0.0551	698.59
352.78 K, 14003 kPa, x2 = 0.0551	699.6
352.78 K, 15017 kPa, x2 = 0.0551	700.5
352.78 K, 16009 kPa, x2 = 0.0551	701.58
352.78 K, 17043 kPa, x2 = 0.0551	702.49
352.78 K, 18011 kPa, x2 = 0.0551	703.38
352.78 K, 18999 kPa, x2 = 0.0551	704.26
352.78 K, 19980 kPa, x2 = 0.0551	705.14
352.78 K, 21012 kPa, x2 = 0.0551	706.06
352.78 K, 22017 kPa, x2 = 0.0551	706.96
352.78 K, 23034 kPa, x2 = 0.0551	707.84
352.78 K, 24044 kPa, x2 = 0.0551	708.75
352.78 K, 24991 kPa, x2 = 0.0551	709.57
352.79 K, 6023 kPa, x2 = 0.2369	695.17
352.79 K, 7016 kPa, x2 = 0.2369	696.39
352.79 K, 8017 kPa, x2 = 0.2369	697.7
352.79 K, 9014 kPa, x2 = 0.2369	698.95
352.79 K, 10006 kPa, x2 = 0.2369	700.1
352.79 K, 11019 kPa, x2 = 0.2369	701.32
352.79 K, 12015 kPa, x2 = 0.2369	702.48
352.79 K, 13014 kPa, x2 = 0.2369	703.71
352.79 K, 14010 kPa, x2 = 0.2369	704.77
352.79 K, 15002 kPa, x2 = 0.2369	705.93
352.79 K, 16000 kPa, x2 = 0.2369	707.03
352.79 K, 17020 kPa, x2 = 0.2369	708.08
352.79 K, 18006 kPa, x2 = 0.2369	709.15
352.79 K, 19014 kPa, x2 = 0.2369	710.21
352.79 K, 19955 kPa, x2 = 0.2369	711.22
352.79 K, 21069 kPa, x2 = 0.2369	712.3
352.79 K, 22042 kPa, x2 = 0.2369	713.3
352.79 K, 23032 kPa, x2 = 0.2369	714.28
352.79 K, 24057 kPa, x2 = 0.2369	715.33
352.79 K, 24999 kPa, x2 = 0.2369	716.29
352.8 K, 8029 kPa, x2 = 0.4536	702.49
352.8 K, 9011 kPa, x2 = 0.4536	704.17
352.8 K, 10022 kPa, x2 = 0.4536	705.86
352.8 K, 11012 kPa, x2 = 0.4536	707.47
352.8 K, 12018 kPa, x2 = 0.4536	709.07
352.8 K, 13013 kPa, x2 = 0.4536	710.62
352.8 K, 14019 kPa, x2 = 0.4536	712.14
352.8 K, 15017 kPa, x2 = 0.4536	713.63
352.8 K, 16008 kPa, x2 = 0.4536	715.06
352.8 K, 17028 kPa, x2 = 0.4536	716.51
352.8 K, 18018 kPa, x2 = 0.4536	717.9
352.8 K, 19024 kPa, x2 = 0.4536	719.28
352.8 K, 20015 kPa, x2 = 0.4536	720.6
352.8 K, 21003 kPa, x2 = 0.4536	721.91
352.8 K, 22029 kPa, x2 = 0.4536	723.29
352.8 K, 23006 kPa, x2 = 0.4536	724.51
352.8 K, 24025 kPa, x2 = 0.4536	725.86
352.8 K, 25013 kPa, x2 = 0.4536	727.09
362.63 K, 15022 kPa, x2 = 0.8114	681.16
362.63 K, 16023 kPa, x2 = 0.8114	688.18
362.63 K, 17027 kPa, x2 = 0.8114	694.15
362.63 K, 18027 kPa, x2 = 0.8114	699.67
362.63 K, 19028 kPa, x2 = 0.8114	704.83
362.63 K, 20026 kPa, x2 = 0.8114	709.67
362.63 K, 21017 kPa, x2 = 0.8114	714.17
362.63 K, 22023 kPa, x2 = 0.8114	718.48
362.63 K, 23019 kPa, x2 = 0.8114	722.51
362.63 K, 24030 kPa, x2 = 0.8114	726.42
362.63 K, 25024 kPa, x2 = 0.8114	730.11
362.65 K, 5978 kPa, x2 = 0.2369	686.43
362.65 K, 7016 kPa, x2 = 0.2369	687.86
362.65 K, 8020 kPa, x2 = 0.2369	689.21
362.65 K, 9035 kPa, x2 = 0.2369	690.58
